Assay [1] addresses Mu-type opioid receptor (Homo sapiens, UniProt P35372). The experiment in a line: Displacement of [3H]DAMGO from human mu opioid receptor expressed in CHO cell membranes after 60 mins by scintillation counting. Background: Loss of bound radioactivity is the signal in a displacement assay; it reports binding, not function.
The species named for assay [2] is Homo sapiens. The assay can be described thus: Selectivity ratio of Ki for human mu opioid receptor to Ki for human kappa opioid receptor.
Assay [3] is filed under the species Homo sapiens. The assay can be described thus: Selectivity ratio of Ki for human delta opioid receptor to Ki for human mu opioid receptor.
For assay [4], the species on record is Homo sapiens. The experiment in a line: Selectivity ratio of Ki for human kappa opioid receptor to Ki for human mu opioid receptor.
In assay [5] the target is Kappa-type opioid receptor (Homo sapiens, UniProt P41145). The experiment in a line: Displacement of [3H]U69,593 from human kappa opioid receptor expressed in CHO cell membranes after 60 mins by scintillation counting.
Assay [6] addresses Delta-type opioid receptor (Homo sapiens, UniProt P41143). The assay can be described thus: Displacement of [3H]naltrindole from human delta opioid receptor expressed in CHO cell membranes after 3 hrs by scintillation counting.
Assay [7] is filed under the species Homo sapiens. The experiment in a line: Selectivity ratio of Ki for human delta opioid receptor to Ki for human kappa opioid receptor.

pKi: −log10 of the molar value.

By pKi is commonly meant the negative decadic logarithm of the Ki, by convention in mol/L. Low readings indicate a large Ki, high ones a small Ki.

Sequence of Mu-type opioid receptor (P35372 whole entry): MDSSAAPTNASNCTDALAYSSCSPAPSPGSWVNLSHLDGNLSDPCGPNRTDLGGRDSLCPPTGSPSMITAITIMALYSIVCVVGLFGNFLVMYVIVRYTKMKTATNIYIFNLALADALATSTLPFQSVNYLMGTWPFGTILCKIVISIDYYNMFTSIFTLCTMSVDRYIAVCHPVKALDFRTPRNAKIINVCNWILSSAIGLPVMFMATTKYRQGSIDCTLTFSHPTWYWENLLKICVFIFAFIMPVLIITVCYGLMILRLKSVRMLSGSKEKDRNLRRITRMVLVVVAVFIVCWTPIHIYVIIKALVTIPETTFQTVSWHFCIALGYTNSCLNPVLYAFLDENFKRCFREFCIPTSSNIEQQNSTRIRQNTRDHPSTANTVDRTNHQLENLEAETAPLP
Sequence of Delta-type opioid receptor (P41143 whole entry): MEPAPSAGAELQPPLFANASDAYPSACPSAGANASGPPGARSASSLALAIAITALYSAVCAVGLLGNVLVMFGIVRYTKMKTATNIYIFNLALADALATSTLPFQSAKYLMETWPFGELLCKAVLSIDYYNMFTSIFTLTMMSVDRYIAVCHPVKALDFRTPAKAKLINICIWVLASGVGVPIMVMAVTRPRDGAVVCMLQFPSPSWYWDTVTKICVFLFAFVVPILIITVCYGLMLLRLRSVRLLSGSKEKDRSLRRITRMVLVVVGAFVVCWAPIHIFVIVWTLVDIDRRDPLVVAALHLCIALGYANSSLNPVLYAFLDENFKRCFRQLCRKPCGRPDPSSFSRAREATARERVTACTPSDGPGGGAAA
Sequence of Kappa-type opioid receptor (P41145 whole entry): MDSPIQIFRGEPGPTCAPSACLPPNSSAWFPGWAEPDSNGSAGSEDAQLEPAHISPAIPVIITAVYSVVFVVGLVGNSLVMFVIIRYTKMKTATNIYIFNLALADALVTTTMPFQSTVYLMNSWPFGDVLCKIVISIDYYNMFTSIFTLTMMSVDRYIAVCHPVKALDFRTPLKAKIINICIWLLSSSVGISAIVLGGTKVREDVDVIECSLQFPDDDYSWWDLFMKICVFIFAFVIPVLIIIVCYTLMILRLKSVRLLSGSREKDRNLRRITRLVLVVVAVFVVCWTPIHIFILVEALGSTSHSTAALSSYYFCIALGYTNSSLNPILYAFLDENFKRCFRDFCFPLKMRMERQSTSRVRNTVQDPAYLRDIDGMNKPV

With `CCCCCCCCCCOc1ccc2c(c1)[C@@]13CCCC[C@H]1[C@@H](C2)N(CC1CCC1)CC3`, the pKi in assay [1] is 7.15. In addition, the Ratio Ki in assay [2] amounted to 1.3.

As for `c1cc2c(cc1OCCCCCCCCCCOc1ccc3c(c1)[C@@]14CCCC[C@H]1[C@@H](C3)N(CC1CCC1)CC4)[C@@]13CCCC[C@H]1[C@@H](C2)N(CC1CCC1)CC3`, the Ratio Ki is 38 in assay [3] and 1.8 in assay [4].

As for `OC(CCCC(O)COc1ccc2c(c1)[C@@]13CCCC[C@H]1[C@@H](C2)N(CC1CCC1)CC3)COc1ccc2c(c1)[C@@]13CCCC[C@H]1[C@@H](C2)N(CC1CCC1)CC3` (stereo partly specified), the pKi in assay [1] is 7.92; in assay [5], 8.01; in assay [6], 6.80. Also, the Ratio Ki in assay [2] was found to be 1.2; in assay [7] it was 16.

Consider `OC(CCCCC(O)COc1ccc2c(c1)[C@@]13CCCC[C@H]1[C@@H](C2)N(CC1CCC1)CC3)COc1ccc2c(c1)[C@@]13CCCC[C@H]1[C@@H](C2)N(CC1CCC1)CC3` (stereo partly specified), for which the pKi in assay [1] was 8.49; in assay [5] it was 8.48; in assay [6], 7.13. The Ratio Ki in assay [7] and in assay [3] was 23 throughout.

On to `OC(COc1ccc2c(c1)[C@@]13CCCC[C@H]1[C@@H](C2)N(CC1CCC1)CC3)CC(O)COc1ccc2c(c1)[C@@]13CCCC[C@H]1[C@@H](C2)N(CC1CCC1)CC3` (stereo partly specified), for which the values for the pKi in assay [1], in assay [5] and in assay [6] were 8.92, 9.77 and 7.48, respectively. Besides, the Ratio Ki came out at 7 in assay [2] and 194 in assay [7].

For the compound `c1cc2c(cc1OCC1CO1)[C@@]13CCCC[C@H]1[C@@H](C2)N(CC1CCC1)CC3` (stereo partly specified), the pKi in assay [1] is 8.14; in assay [5], 7.44; in assay [6] it was 6.70. Also, the figures for the Ratio Ki in assay [3] and in assay [4] were 27 and 5, respectively.

Regarding `c1cc2c(cc1OCCCCOc1ccc3c(c1)[C@@]14CCCC[C@H]1[C@@H](C3)N(CC1CCC1)CC4)[C@@]13CCCC[C@H]1[C@@H](C2)N(CC1CCC1)CC3`, the Ratio Ki in assay [2] is 1.6; in assay [7], 40.

Consider `OC(CCCCCCC(O)COc1ccc2c(c1)[C@@]13CCCC[C@H]1[C@@H](C2)N(CC1CCC1)CC3)COc1ccc2c(c1)[C@@]13CCCC[C@H]1[C@@H](C2)N(CC1CCC1)CC3` (stereo partly specified), for which the pKi was 8.62 in assay [1], 8.85 in assay [5] and 7.57 in assay [6]. For the same compound, the Ratio Ki in assay [2] was determined as 1.7; in assay [7], 19.

`OC(CCCCCC(O)COc1ccc2c(c1)[C@@]13CCCC[C@H]1[C@@H](C2)N(CC1CCC1)CC3)COc1ccc2c(c1)[C@@]13CCCC[C@H]1[C@@H](C2)N(CC1CCC1)CC3` (stereo partly specified): the figures for the pKi in assay [1], in assay [5] and in assay [6] were 8.32, 8.41 and 7.00, respectively. Further, the figures for the Ratio Ki in assay [2] and in assay [7] were 1.2 and 25, respectively.

On to `OC(COc1ccc2c(c1)[C@@]13CCCC[C@H]1[C@@H](C2)N(CC1CCC1)CC3)COc1ccc2c(c1)[C@@]13CCCC[C@H]1[C@@H](C2)N(CC1CCC1)CC3`, for which the values for the pKi in assay [1], in assay [5] and in assay [6] were 9.02, 9.00 and 7.43, respectively. Further, the Ratio Ki in assay [7] and in assay [3] was 39 each time.

Turning to `CCCCCCCCCC(=O)Oc1ccc2c(c1)[C@@]13CCCC[C@H]1[C@@H](C2)N(CC1CCC1)CC3`, the pKi in assay [1] was 9.68; in assay [5] it was 9.70; in assay [6], 7.70. Also, the Ratio Ki in assay [7] and in assay [3] was 100 in each case.

On to `CCCCCCCCC(O)COc1ccc2c(c1)[C@@]13CCCC[C@H]1[C@@H](C2)N(CC1CCC1)CC3` (stereo partly specified), for which the results for the pKi in assay [1], in assay [5] and in assay [6] were 8.13, 8.08 and 7.28, respectively. The Ratio Ki in assay [3] worked out at 7; in assay [4], 1.1.

Turning to `c1cc2c(cc1OCCCOc1ccc3c(c1)[C@@]14CCCC[C@H]1[C@@H](C3)N(CC1CCC1)CC4)[C@@]13CCCC[C@H]1[C@@H](C2)N(CC1CCC1)CC3`, the pKi is 8.15 in assay [1], 8.21 in assay [5] and 6.74 in assay [6]. Moreover, the Ratio Ki in assay [2] was determined as 1.1; in assay [7] it was 29.

For the compound `OC(COc1ccccc1)COc1ccc2c(c1)[C@@]13CCCC[C@H]1[C@@H](C2)N(CC1CCC1)CC3` (stereo partly specified), the pKi in assay [1] was 8.19; in assay [5] it was 7.66; in assay [6], 7.07. The Ratio Ki in assay [3] and in assay [4] was 13 in each case.

Consider `OC(COc1ccc(Cc2ccc(OCC(O)COc3ccc4c(c3)[C@@]35CCCC[C@H]3[C@@H](C4)N(CC3CCC3)CC5)cc2)cc1)COc1ccc2c(c1)[C@@]13CCCC[C@H]1[C@@H](C2)N(CC1CCC1)CC3` (stereo partly specified), for which the pKi in assay [1] is 9.62; in assay [5], 9.47; in assay [6], 7.54. For the same compound, the figures for the Ratio Ki in assay [3] and in assay [4] were 121 and 1.4, respectively.

For `OC(CCC(O)COc1ccc2c(c1)[C@@]13CCCC[C@H]1[C@@H](C2)N(CC1CCC1)CC3)COc1ccc2c(c1)[C@@]13CCCC[C@H]1[C@@H](C2)N(CC1CCC1)CC3` (stereo partly specified), the values for the pKi in assay [1], in assay [5] and in assay [6] were 7.77, 7.92 and 6.38, respectively. In addition, the results for the Ratio Ki in assay [2] and in assay [7] were 1.4 and 35, respectively.

Source of the values: ChEMBL document CHEMBL1154976 (Bioorg Med Chem Lett, 2010).
